Laboratory results as given in US12390455B2, “EZH1/2 dual inhibitor-containing pharmaceutical composition to be used as a combination drug” (DAIICHI SANKYO COMPANY, LIMITED, priority 2018, dated 2025).

Experiments:
Experiment in all cases: Cell growth inhibitory activity, Compound A alone and combined with a second medical agent (CellTiter-Glo)
KARPAS-422 = assay type: cell-based, human; details: KARPAS-422, DLBCL (GCB), EZH2 MT (Y641N); 7 days culture then 3 days in assay plate
Description: (§1) Cell strains listed in Table 1 and Table 2 were seeded in cell culture plates (for example, 6-well culture plates). DMSO solutions of Compound A diluted to different concentrations or DMSO alone were added such that the concentration of the solvent was 0.1%. The cells were cultured for 7 days. During the culturing, at intervals of about 3 days or 4 days depending on cell proliferation, subculturing was appropriately carried out. In the subculturing, DMSO solutions of Compound A diluted to different concentrations or DMSO alone were added to fresh medium at the same concentration as in initiation of the study. […]
(§2) During the culturing period, the culture conditions were 37° C. and 5% CO2. […] Thereafter, the amount of light emitted from each of the wells was measured by a plate reader (EnVision, PerkinElmer Co., Ltd.). Based on the luminescence of the sample addition group (TS) and the DMSO addition group (CS) for each treatment condition measured on the day of seeding; and the luminescence of the sample addition group (T) and the DMSO addition group (C) for each treatment condition measured on the day of evaluation, the cell growth inhibition rate was calculated in accordance with the following expression: Cell growth inhibition rate %={1−(T−TS)/(C−CS)}×100 […]

MV-4-11 = assay type: cell-based, human; details: MV-4-11, AML, MLL-AF4, FLT3-ITD; 7 days culture then 3 days in assay plate
Description: as §1, §2

SU-DHL-2 = assay type: cell-based; details: SU-DHL-2, DLBCL (non-GCB), EZH2 WT; 7 days culture then 3 days in assay plate
Description: (§3) Cell strains listed in Table 1 and Table 2 were seeded in cell culture plates (for example, 6-well culture plates). DMSO solutions of Compound A diluted to different concentrations or DMSO alone were added such that the concentration of the solvent was 0.1%. The cells were cultured for 7 days. During the culturing, at intervals of about 3 days or 4 days depending on cell proliferation, subculturing was appropriately carried out. In the subculturing, DMSO solutions of Compound A diluted to different concentrations or DMSO alone were added to fresh medium at the same concentration as in initiation of the study.
(§4) The cell strains cultured in the above conditions were seeded in 96-well assay plates and the cells were cultured under a combination of the following conditions: • (i) DMSO solutions of Compound A diluted to different concentrations or DMSO alone were added such that the concentration of the solvent was 0.1%, and • (ii) DMSO solutions of a second medical agent or DMSO alone (if a preparation of a second medical agent was used, the preparation of the second medical agent was diluted with saline and used, or saline alone was used) was added such that the concentration of the solvent was 0.1%.
(§5) During the culturing period, the culture conditions were 37° C. and 5% CO2. On the day when the cells were seeded in a 96-well assay plate (day of seeding) and 3 days later (day of evaluation), a reaction was carried out using CellTiter-Glo 2.0 Assay reagent (Promega KK., #G9241) in accordance with the manual attached thereto. Thereafter, the amount of light emitted from each of the wells was measured by a plate reader (EnVision, PerkinElmer Co., Ltd.). Based on the luminescence of the sample addition group (TS) and the DMSO addition group (CS) for each treatment condition measured on the day of seeding; and the luminescence of the sample addition group (T) and the DMSO addition group (C) for each treatment condition measured on the day of evaluation, the cell growth inhibition rate was calculated in accordance with the following expression: Cell growth inhibition rate %={1−(T−TS)/(C−CS)}×100
(§6) Note that, if the number of cells of a sample addition group on the day of evaluation was lower than that of the day of seeding (T<TS), the cell-killing effect was calculated in accordance with the following expression: Cell-killing rate %=(T−TS)/TS×(−100)
(§7) The cell growth inhibition rate and cell killing rate obtained by calculation were fitted to the Sigmoid Emax model to calculate 100% cell growth inhibitory concentration of each of Compound A alone, a second medical agent alone, and Compound A-second medical agent combinations at different concentrations.
(§8) Based on the 100% cell growth inhibitory concentrations (Compound A alone: D1, second medical agent alone: D2, Compound A when used in combination: d1, second medical agent when used in combination: d2) calculated, the combination index (CI) was calculated in accordance with the following expression: CI=d1/D1+d2/D2 Determination was based on the criteria: if CI<1, a synergetic effect is present; if CI=1, an additive effect is present; and if CI>1, an antagonist effect is present (refer to Adv. Enzyme Regul. 1984, p. 2227-55).

OCI-LY3 = assay type: cell-based; details: OCI-LY3, DLBCL (non-GCB), EZH2 WT; 7 days culture then 3 days in assay plate
Description: as §3, §4, §5, §6, §7, §8

OCI-AML2 = assay type: cell-based; details: OCI-AML2, AML, MLL-AF6, DNMT3Amt, FLT3-ITD; 7 days culture then 3 days in assay plate
Description: as §3, §4, §5, §6, §7, §8

OCI-AML3 = assay type: cell-based; details: OCI-AML3, AML, NPM1mt, DNMT3Amt; 7 days culture then 3 days in assay plate
Description: as §3, §4, §5, §6, §7, §8

MOLM14 = assay type: cell-based; details: MOLM14, AML, MLL-AF9, FLT3-ITD; 7 days culture then 3 days in assay plate
Description: as §3, §4, §5, §6, §7, §8

OCI-AML5 = assay type: cell-based; details: OCI-AML5, AML; 7 days culture then 3 days in assay plate
Description: as §3, §4, §5, §6, §7, §8

OCI-LY19 = assay type: cell-based; details: OCI-LY19, DLBCL (GCB), EZH2 WT; 7 days culture then 3 days in assay plate
Description: as §3, §4, §5, §6, §7, §8

DB = assay type: cell-based; details: DLBCL (GCB), EZH2 MT (Y641N), 7 days culture then 3 days in assay plate
Description: as §3, §4, §5, §6, §7, §8

OCI-LY7 = assay type: cell-based; details: OCI-LY7, DLBCL (GCB), EZH2 WT; 7 days culture then 3 days in assay plate
Description: as §3, §4, §5, §6, §7, §8

REC-1 = assay type: cell-based; details: REC-1, MCL, EZH2 WT; 7 days culture then 3 days in assay plate
Description: as §3, §4, §5, §6, §7, §8

GRANTA-519 = assay type: cell-based; details: GRANTA-519, MCL, EZH2 WT; 7 days culture then 3 days in assay plate
Description: as §3, §4, §5, §6, §7, §8

MOLM13 = assay type: cell-based; details: MOLM13, AML, MLL-AF9, FLT3-ITD; 7 days culture then 3 days in assay plate
Description: as §3, §4, §5, §6, §7, §8

JeKo-1 = assay type: cell-based; details: JeKo-1, MCL, EZH2 WT; 7 days culture then 3 days in assay plate
Description: as §3, §4, §5, §6, §7, §8

DOHH-2 = assay type: cell-based; details: DOHH-2, DLBCL (GCB), EZH2 WT; 7 days culture then 3 days in assay plate
Description: as §3, §4, §5, §6, §7, §8

Structure (SMILES): Cc1cc(C)c(CNC(=O)c2cc(Cl)c3c(c2C)O[C@@](C)([C@H]2CC[C@H](N(C)C)CC2)O3)c(=O)[nH]1 [Compound A, (2R)-7-chloro-2-[trans-4-(dimethylamino)cyclohexyl]-N-[(4,6-dimethyl-2-oxo-1,2-dihydropyridin-3-yl)methyl]-2,4-dimethyl-1,3-benzodioxol-5-carboxamide p-toluenesulfonate]
- Cpd A GI100 (100% cell growth inhibitory concentration) (KARPAS-422): 5.7 nM
- Cpd A GI100 (100% cell growth inhibitory concentration) (MV-4-11): >100 nM
- Cpd A GI100 (100% cell growth inhibitory concentration) (SU-DHL-2): 4.9 nM
- Cpd A GI100 (100% cell growth inhibitory concentration) (OCI-LY3): >1000 nM
- Cpd A GI100 (100% cell growth inhibitory concentration) (OCI-AML2): 647 nM
- Cpd A GI100 (100% cell growth inhibitory concentration) (OCI-AML3): >1000 nM
- Cpd A GI100 (100% cell growth inhibitory concentration) (MOLM14): >1000 nM
- Cpd A GI100 (100% cell growth inhibitory concentration) (OCI-AML5): >5 µM
- Cpd A GI100 (100% cell growth inhibitory concentration) (OCI-LY19): >1000 nM
- Cpd A GI100 (100% cell growth inhibitory concentration) (DB): >100 nM
- Cpd A GI100 (100% cell growth inhibitory concentration) (OCI-LY7): 90 nM
- Cpd A GI100 (100% cell growth inhibitory concentration) (REC-1): 170 nM
- Cpd A GI100 (100% cell growth inhibitory concentration) (GRANTA-519): 53 nM
- Cpd A GI100 (100% cell growth inhibitory concentration) (MOLM13): 97 nM
- Cpd A GI100 (100% cell growth inhibitory concentration) (JeKo-1): 8.1 nM
- Cpd A GI100 (100% cell growth inhibitory concentration) (DOHH-2): 17 nM
